Data as given in patent US7629458B2, “Preparation of levofloxacin and hemihydrate thereof” (Teva Pharmaceutical Industries Ltd., priority 2001, dated 2009).

What was measured:
[1] = ordinary relative humidity conditions; cited from earlier work
[2] = Exposure of wet material to the air at RT covered with paper, polymorph of the sample; assay type: physicochemical
Description: The wet material was exposed to the air at RT covered with paper (for protection).
A first portion of the wet material was stirred in 5 v of acetonitrile at 75° C. for 2 h, then filtrated under vacuum. The polymorphism of the wet sample was Hemihydrate. A second portion of the wet material was exposed to the air at RT covered with paper (for protection).
After a few hours the polymorph of the wet samples was Hemihydrate.

[3] = Storage of crystal forms in a closed or open bottle at RT, conversion to hemihydrate by absorption of atmospheric water; assay type: physicochemical; details: sample kept in an open bottle
Excerpt: Another embodiment of the invention is a method for preparing a levofloxacin hemihydrate comprising storing one or more forms selected from the group consisting of Forms A, B, C, F, G, and H for an amount of time sufficient for the one or more forms to convert to a levofloxacin hemihydrate by the absorption of atomospheric water. For example, Forms A, B, C, F, G and H were converted to hemihydrate after 7-29 days of storing in a closed bottle at RT. The conversion to hemihydrate was faster (about 24 h) when keeping the sample in an open bottle.

## C[C@H]1COc2c(N3CCN(C)CC3)c(F)cc3c(=O)c(C(=O)O)cn1c23 [Form γ, levofloxacin]
[1]
  form obtained after rapid adsorption of water vapor: hemihydrate

## C[C@H]1COc2c(N3CCN(C)CC3)c(F)cc3c(=O)c(C(=O)O)cn1c23 [Form H, levofloxacin]
[2]; after 3, 6, 9 hours (Example 12)
  polymorph of the wet sample after exposure to the air: Form G
[2]; after 24 hours (Example 12)
  polymorph of the wet sample after exposure to the air: hemihydrate polymorph
[2]; after a few hours (Example 13)
  polymorph of the wet sample after exposure to the air: Hemihydrate

## C[C@H]1COc2c(N3CCN(C)CC3)c(F)cc3c(=O)c(C(=O)O)cn1c23 [Form A, levofloxacin]
[3]
  time of conversion to hemihydrate: about 24 h

## C[C@H]1COc2c(N3CCN(C)CC3)c(F)cc3c(=O)c(C(=O)O)cn1c23 [form α, levofloxacin]
[1]
  form obtained after rapid adsorption of water vapor: monohydrate
